# Read-outs that look alike come from different tables or passages of the source.
# How the values were obtained:
# active mouse DPP1 enzyme = active mouse DPP1 enzyme (Mus musculus (Mouse), UniProt P97821); assay: Mouse DPP1 Enzyme IC50 Assay; type: biochemical
# Protocol: Test articles were applied to active mouse DPP1 enzyme (R&D Systems; Minneapolis, MN) in Assay Buffer (50 mM MES pH 5.5, 50 mM NaCl, 5 mM DTT) in a total reaction volume of 125 μL. 25 μL of compound in Assay Buffer plus 5% DMSO was first added to 50 μL of active mouse DPP1 enzyme at a concentration of 62.5 pg/μL and allowed to pre-incubate for 10 minutes at 37° C. after which 50 μL of 1000 μM H-Gly-Arg-AMC substrate (Bachem; St. Torrance, CA) was added, giving final substrate concentration of 400 μM and a final DMSO concentration of 1%. Substrate cleavage was measured for 90 minutes at 37° C., with fluorescence at Excitation/Emission 350/450 nm measured every 5 minutes. DPP1 concentration was interpolated based on its activity relative to a standard curve of recombinant active mouse DPP1 enzyme. IC50 values for each compound were calculated via the XLFit (IDBS Version 5.3.1.3) Add-On to Microsoft Excel using the four parameter fit equation y=(A+((B−A)/(1+((C/x)^D)))), which appears as equation number 205 (4 Parameter Logistic Model or Sigmoidal Dose-Response Model) in XLFit. Default constraints were used for each Parameter. IC50 was defined as the compound concentration at which 50% of enzyme activity was inhibited when compared to the no-compound control.
# [1] = target: Recombinant human DPP1 enzyme (Homo sapiens (Human), UniProt P53634); assay: Human DPP1 Enzyme IC50 Assay; type: biochemical
# Chain of Recombinant human DPP1 enzyme (P53634 25-134): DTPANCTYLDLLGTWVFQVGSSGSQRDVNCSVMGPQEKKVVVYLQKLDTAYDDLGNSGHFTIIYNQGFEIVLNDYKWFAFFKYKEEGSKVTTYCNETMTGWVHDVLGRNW
# Chain of Recombinant human DPP1 enzyme (P53634 231-394): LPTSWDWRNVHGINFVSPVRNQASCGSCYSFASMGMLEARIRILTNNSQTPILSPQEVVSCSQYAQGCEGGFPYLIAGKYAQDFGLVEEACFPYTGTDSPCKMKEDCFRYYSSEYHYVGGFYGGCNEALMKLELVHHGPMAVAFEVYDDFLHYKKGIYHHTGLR
# Chain of Recombinant human DPP1 enzyme (P53634 395-463): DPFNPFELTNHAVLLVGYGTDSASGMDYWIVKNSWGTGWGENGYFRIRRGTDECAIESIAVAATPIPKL
# Protocol: Recombinant human DPP1 enzyme (R&D Systems; Minneapolis, MN) was first proteolytically processed into its mature form using recombinant human cathepsin L (R&D Systems) in a buffer consisting of 20 mM citric acid pH 4.5, 150 mM NaCl, 1 mM EDTA and 10 mM DTT. Test articles were applied to activated human DPP1 enzyme in Assay Buffer (25 mM MES pH 6.0, 50 mM NaCl, 5 mM DTT) in a total reaction volume of 125 μL. 25 μL of compound in Assay Buffer plus 5% DMSO was first added to 50 μL of activated human DPP1 enzyme at a concentration of 1 ng/μL and allowed to pre-incubate for 10 minutes at 37° C. after which 50 μL of 1000 μM H-Gly-Arg-AMC substrate (Bachem; St. Torrance, CA) was added, giving final substrate concentration of 400 μM and a final DMSO concentration of 1%. Substrate cleavage was measured for 90 minutes at 37° C., with fluorescence at Excitation/Emission 350/450 nm measured every 5 minutes. DPP1 concentration was interpolated based on its activity relative to a standard curve of activated human recombinant DPP1 enzyme. IC50 values for each compound were calculated via the XLFit (IDBS Version 5.3.1.3) Add-On to Microsoft Excel using the four parameter fit equation y={A+[(B−A)]/[1+((C/x)^D)]}, which appears as equation number 205 (4 Parameter Logistic Model or Sigmoidal Dose-Response Model) in XLFit. Default constraints were used for each Parameter.
# DPP1 in HL-60 cells = DPP1 in HL-60 cells (Homo sapiens (Human), UniProt P53634); assay: DPP1 Cell IC50 Assay (HL-60 cells, H-Gly-Phe-AFC substrate); type: cell-based
# Chain of DPP1 in HL-60 cells (P53634 25-134): as the sequence (P53634 25-134) above
# Chain of DPP1 in HL-60 cells (P53634 231-394): as the sequence (P53634 231-394) above
# Chain of DPP1 in HL-60 cells (P53634 395-463): as the sequence (P53634 395-463) above
# Protocol: HL-60 cells (ATCC; Manassas, VA) were maintained in RPMI-1640 supplemented with 20% heat-inactivated FBS and 1× Antibiotic Antimycotic (Cytiva; Marlborough, MA). Media was changed every three to four days and cells were not allowed to exceed 1×10^6 cells per mL. Prior to assay, cells were collected by centrifugation at 500 rcf for 3 minutes, resuspended in PBS and counted. Cells were diluted in PBS to a concentration of 5×10^5 live cells per mL and transferred to black 96-well plates for assay, 60 μL per well. Test articles were diluted in PBS plus 0.5% DMSO, and 20 μL was added to each assay well. Compound was allowed to pre-incubate with cells with gentle shaking at 100 rpm for 60 minutes at 37° C. in a cell culture incubator maintained at 5% CO2, after which 20 μL of 500 μM H-Gly-Phe-AFC substrate (MP Biomedicals; Solon, OH) was added to each well. Plates were returned to the incubator with shaking at 100 rpm for 30 minutes, after which fluorescence was measured at Excitation/Emission 400/505 nm. % Inhibition was calculated from RFU values compared to control cell wells that received only PBS plus 0.5% DMSO. IC50 values for each compound were calculated via the XLFit (IDBS Version 5.3.1.3) Add-On to Microsoft Excel using the four parameter fit equation y=(A+((B−A)/(1+((C/x)^D)))), which appears as equation number 205 (4 Parameter Logistic Model or Sigmoidal Dose-Response Model) in XLFit.
# [2] = mouse DPP1 enzyme, Table 16, read-out: IC50, nM, Mouse
# [3] = human DPP1 enzyme, Table 16, read-out: IC50, nM, Human
# [4] = H-Gly-Phe-AFC substrate, Table 15, read-out: Cell IC50
# [5] = figure legends FIG. 12 and 13, read-out: IC50, in vitro inhibition of mouse DPP1
# [6] = mouse DPP1 enzyme, H-Gly-Arg-AMC substrate 400 μM, Table 13, read-out: IC50
# [7] = figure legends FIG. 14 and 15, read-out: IC50, in vitro inhibition of human DPP1
# Chain of active mouse DPP1 enzyme (P97821 25-134): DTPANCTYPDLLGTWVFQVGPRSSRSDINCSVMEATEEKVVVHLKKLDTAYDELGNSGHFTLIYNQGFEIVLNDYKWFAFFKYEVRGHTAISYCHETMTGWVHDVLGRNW
# Chain of active mouse DPP1 enzyme (P97821 231-393): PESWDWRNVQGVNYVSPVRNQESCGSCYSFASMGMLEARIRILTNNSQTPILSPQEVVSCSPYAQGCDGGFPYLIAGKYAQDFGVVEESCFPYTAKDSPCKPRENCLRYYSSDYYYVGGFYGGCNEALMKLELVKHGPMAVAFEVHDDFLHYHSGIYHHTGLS
# Chain of active mouse DPP1 enzyme (P97821 394-462): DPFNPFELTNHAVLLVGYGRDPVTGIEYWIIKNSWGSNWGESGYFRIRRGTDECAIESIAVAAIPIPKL
Structure (SMILES),IC50 (active mouse DPP1 enzyme; [2]) [nM],"IC50 [1, 3] [nM]","IC50 (DPP1 in HL-60 cells; Table 16, read-out: Cell Assay) [µM]",also measured
Cn1c(=O)oc2ccc(-c3ccc(C[C@@H](C#N)NC(=O)[C@@H]4C[C@@H]5C[C@@H]5N4)cc3)cc21,131,189,0.026,–
Cn1c(=O)oc2ccc(-c3ccc(C[C@@H](C#N)NC(=O)[C@@H]4COCCN4)cc3)cc21,306,537,0.33,–
Cn1c(=O)oc2ccc(-c3ccc(C[C@@H](C#N)NC(=O)C4CC5OCCC5N4)cc3)cc21 (some centres unmarked),438,784,0.878,–
Cn1c(=O)oc2ccc(-c3ccc(C[C@@H](C#N)NC(=O)CC4(N)CCCCC4)cc3)cc21,815,1100,0.0401,–
Cn1c(=O)oc2ccc(-c3ccc(C[C@@H](C#N)NC(=O)[C@H]4C[C@H]5OCC[C@H]5N4)cc3)cc21,226,497,> 1,–
Cn1c(=O)oc2ccc(-c3ccc(C[C@@H](C#N)NC(=O)C4CNC(C)(C)CO4)cc3)cc21 (some centres unmarked),785,360,0.0547,–
Cn1c(=O)oc2ccc(-c3ccc(CC(C#N)NC(=O)C4CNC4)c(F)c3)cc21 (centres unmarked),647,432,0.508,–
[2H]C([2H])([2H])n1c(=O)oc2ccc(-c3ccc(C[C@@H](C#N)NC(=O)C4CNC4)c(F)c3)cc21,–,416,0.418,–
N#Cc1ccc(-c2ccc(C[C@@H](C#N)NC(=O)[C@@H]3C[C@@H]4COC[C@@H]4N3)cc2)cc1,246,480,0.875,–
[2H]C([2H])([2H])n1c(=O)oc2ccc(-c3ccc(C[C@@H](C#N)NC(=O)[C@@H]4C[C@@H]5COC[C@@H]5N4)cc3)cc21,–,426,0.5,–
Cn1c(=O)oc2ccc(-c3ccc(C[C@@H](C#N)NC(=O)[C@@H]4C[C@@H]5COC[C@@H]5N4)c(F)c3)cc21,41.2,179,0.15,–
[2H]C([2H])([2H])n1c(=O)oc2ccc(-c3ccc(C[C@@H](C#N)NC(=O)[C@@H]4C[C@@H]5COC[C@@H]5N4)c(F)c3)cc21,–,102,0.146,–
Cn1c(=O)oc2ccc(-c3ccc(C[C@@H](C#N)NC(=O)[C@@H]4CNCCCO4)cc3F)cc21,218,186,0.0101,–
N#Cc1ccc(-c2ccc(C[C@@H](C#N)NC(=O)[C@@H]3C[C@@H]4CCC[C@@H]4N3)c(F)c2)cc1,6.5,10.1,0.003 ± 0.0004,–
Cn1c(=O)oc2ccc(-c3ccc(C[C@@H](C#N)NC(=O)[C@@H]4C[C@@H]5CCC[C@@H]5N4)cc3)cc21,8.2,17.3,0.0031,–
Cn1c(=O)oc2ccc(-c3cc(F)c(C[C@@H](C#N)NC(=O)[C@@H]4CNCCCO4)cc3F)cc21,–,29.6,0.0038,–

Structure (SMILES),IC50 (active mouse DPP1 enzyme; [2]) [nM],"IC50 [1, 3] [nM]","IC50 (DPP1 in HL-60 cells; Table 16, read-out: Cell Assay) [µM]",also measured
Cn1c(=O)oc2ccc(-c3cc(F)c(C[C@@H](C#N)NC(=O)[C@@H]4CNCCCO4)c(F)c3)cc21,–,42.2,0.0049,–
N#C[C@H](Cc1ccc(-c2ccc3c(c2)C(=O)NC3)cc1)NC(=O)[C@@H]1CNCCCO1,–,428,0.0599,–
"CC[C@@H](/C=C/C(=O)N1CCc2ccccc21)NC(=O)C1(N)CCOCC1 [GSK-2793660, reference compound]",–,–,–,IC50 (DPP1 in HL-60 cells; [4]): 0.00034 µM
"Cn1c(=O)oc2ccc(-c3ccc(C[C@@H](C#N)NC(=O)[C@@H]4C[C@H]5C[C@H]5N4)cc3)cc21 [IWD-002, (1R,3S,5R)—N—((S)-1-cyano-2-(4-(3-methyl-2-oxo-2,3-dihydrobenzo[d]oxazol-5-yl)phenyl)ethyl)-2-azabicyclo[3.1.0]hexane-3-carboxamide]",–,–,–,IC50 (DPP1 in HL-60 cells; [4]): 0.0037 µM
"N#Cc1ccc(-c2ccc(C[C@@H](C#N)NC(=O)[C@@H]3C[C@H]4COC[C@H]4N3)cc2)cc1 [IWD-004, (2S,3αR,6αS)—N—((S)-1-cyano-2-(4′-cyano-[1,1′-biphenyl]-4-yl)ethyl)hexahydro-1H-furo[3,4-b]pyrrole-2-carboxamide]",–,–,–,"IC50 (active mouse DPP1 enzyme; [5]): 209 nM; IC50 (active mouse DPP1 enzyme; [6]): 209 nM; IC50 [1, 7]: 245 nM"
"Cn1c(=O)oc2ccc(-c3ccc(C[C@@H](C#N)NC(=O)[C@@H]4C[C@H]5COC[C@H]5N4)cc3)cc21 [IWD-005, (2S,3αR,6αS)—N—((S)-1-cyano-2-(4-(3-methyl-2-oxo-2,3-dihydrobenzo[d]oxazol-5-yl)phenyl)ethyl)hexahydro-1H-furo[3,4-b]pyrrole-2-carboxamide]",–,–,–,"IC50 (active mouse DPP1 enzyme; [5]): 45.6 nM; IC50 (active mouse DPP1 enzyme; [6]): 45.6 nM; IC50 [1, 7]: 69.2 nM; IC50 ([1]; human DPP1 enzyme, H-Gly-Arg-AMC substrate 400 μM, Table 14, read-out: IC50): 69.2 nM"
Cn1c(=O)oc2ccc(-c3ccc(C[C@@H](C#N)NC(=O)[C@@H]4C[C@H]5C[C@H]5N4)cc3)cc21 [drawing 1151],24,41.1,0.0037,–
Cn1c(=O)oc2ccc(-c3ccc(C[C@@H](C#N)NC(=O)[C@@H]4C[C@H]5C[C@H]5N4)cc3)cc21 [drawing 1152],19.6,30.4,–,–
N#Cc1ccc(-c2ccc(C[C@@H](C#N)NC(=O)[C@@H]3C[C@H]4COC[C@H]4N3)cc2)cc1 [drawing 1153],209,269,–,–
Cn1c(=O)oc2ccc(-c3ccc(C[C@@H](C#N)NC(=O)[C@@H]4C[C@H]5COC[C@H]5N4)cc3)cc21 [drawing 1154],45.6,69.2,–,–
Cn1c(=O)oc2ccc(-c3ccc(C[C@@H](C#N)NC(=O)C4CNCC45CCC5)cc3)cc21 (some centres unmarked) [drawing 1188],2080,828,0.0604,–
N#Cc1ccc(-c2ccc(C[C@@H](C#N)NC(=O)[C@@H]3CNCCCO3)c(F)c2)cc1 [drawing 1196],31,31.4,0.0036,–
N#Cc1ccc(-c2ccc(C[C@@H](C#N)NC(=O)[C@@H]3CNCCCO3)c(F)c2)cc1 [drawing 1197],36.7,49.5,0.0042,–
Cn1c(=O)oc2ccc(-c3ccc(C[C@@H](C#N)NC(=O)[C@@H]4C[C@@H]5COC[C@@H]5N4)cc3)cc21 [drawing 1208],136,311,0.462,–
Cn1c(=O)oc2ccc(-c3ccc(C[C@@H](C#N)NC(=O)[C@@H]4C[C@@H]5CCC[C@@H]5N4)c(F)c3)cc21 [drawing 1220],3.4,5.9,0.0017,–
Cn1c(=O)oc2ccc(-c3ccc(C[C@@H](C#N)NC(=O)[C@@H]4C[C@@H]5CCC[C@@H]5N4)c(F)c3)cc21 [drawing 1227],–,7.6,0.0019,–

# — patent US20260062420A1, “NOVEL DPP1 INHIBITORS AND USES THEREOF” (Insmed Incorporated, priority 2022, published 2026)
